From the supplement of paper PMC10307832

Key:
Experiment in all cases: relative viability (nuclei count vs DMSO), 5 days (fraction); higher = more cells survive
Cabozantinib + Dasatinib = compound: COc1cc2nccc(Oc3ccc(NC(=O)C4(C(=O)Nc5ccc(F)cc5)CC4)cc3)c2cc1OC [Cabozantinib] + Cc1nc(Nc2ncc(C(=O)Nc3c(C)cccc3Cl)s2)cc(N2CCN(CCO)CC2)n1 [Dasatinib] (partner 0.075 µM)
Method in brief: (§1)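 One day after seeding in 1536-well plates, lung cancer cell lines were dosed by pin tool. Dosing was either single-drug or a fixed anchor-drug dose plus five library-drug doses (not always all listed) in √10 steps. After 5 days, nuclei were stained in one fix-and-stain step and counted on 4× images, and relative viability is the nuclei count of treated wells over that of vehicle wells, given as the median of duplicate plates.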

Kobe2602 + Decitabine = compound: C1=CC(=CC=C1NC(=S)NNC2=C(C=C(C=C2[N+](=O)[O-])C(F)(F)F)[N+](=O)[O-])F [Kobe2602] + Nc1ncn([C@H]2C[C@H](O)[C@@H](CO)O2)c(=O)n1 [Decitabine] (partner 2 µM)
Method in brief: as §1

Zosuquidar + Bortezomib = compound: O[C@@H](COc1cccc2ncccc12)CN1CCN([C@@H]2c3ccccc3[C@@H]3[C@H](c4ccccc42)C3(F)F)CC1 [Zosuquidar] + CC(C)C[C@H](NC(=O)[C@H](Cc1ccccc1)NC(=O)c1cnccn1)B(O)O [Bortezomib] (partner 0.002 µM)
Method in brief: as §1

Zosuquidar + Trametinib = compound: O[C@@H](COc1cccc2ncccc12)CN1CCN([C@@H]2c3ccccc3[C@@H]3[C@H](c4ccccc42)C3(F)F)CC1 [Zosuquidar] + CC(=O)Nc1cccc(-n2c(=O)n(C3CC3)c(=O)c3c(Nc4ccc(I)cc4F)n(C)c(=O)c(C)c32)c1 [Trametinib] (partner 0.02 µM)
Method in brief: as §1

Cell Line | relative viability (Cabozantinib + Dasatinib; first compound 0.02 µM) | relative viability (Cabozantinib + Dasatinib; first compound 0.06325 µM) | relative viability (Cabozantinib + Dasatinib; first compound 0.2 µM) | relative viability (Cabozantinib + Dasatinib; first compound 0.6325 µM) | relative viability (Cabozantinib + Dasatinib; first compound 2 µM) | relative viability (Kobe2602 + Decitabine; first compound 0.2 µM) | relative viability (Kobe2602 + Decitabine; first compound 0.6325 µM) | relative viability (Kobe2602 + Decitabine; first compound 2 µM) | relative viability (Kobe2602 + Decitabine; first compound 6.325 µM) | relative viability (Kobe2602 + Decitabine; first compound 20 µM) | relative viability (Zosuquidar + Bortezomib; first compound 0.01 µM) | relative viability (Zosuquidar + Bortezomib; first compound 0.03162 µM) | relative viability (Zosuquidar + Bortezomib; first compound 0.1 µM) | relative viability (Zosuquidar + Bortezomib; first compound 0.3162 µM) | relative viability (Zosuquidar + Bortezomib; first compound 1 µM) | relative viability (Zosuquidar + Trametinib; first compound 0.01 µM) | relative viability (Zosuquidar + Trametinib; first compound 0.03162 µM) | relative viability (Zosuquidar + Trametinib; first compound 0.1 µM) | relative viability (Zosuquidar + Trametinib; first compound 0.3162 µM) | relative viability (Zosuquidar + Trametinib; first compound 1 µM)
NCI-H661 | 0.732 | 0.838 | 0.724 | 0.767 | 0.772 | 0.564 | 0.598 | 0.589 | 0.561 | 0.612 | 0.875 | 0.702 | 0.628 | 1.12 | 0.949 | 0.614 | 0.549 | 0.531 | 0.599 | 0.546
NCI-H1650 | 0.261 | 0.292 | 0.294 | 0.303 | 0.225 | 0.42 | 0.473 | 0.381 | 0.338 | 0.366 | 0.227 | 0.226 | 0.206 | 0.219 | 0.222 | 0.488 | 0.577 | 0.702 | 0.661 | 0.601
NCI-H647 | 0.281 | 0.17 | 0.201 | 0.147 | 0.136 | 0.438 | 0.399 | 0.332 | 0.4 | 0.399 | 1.01 | 0.882 | 1.27 | 1.1 | 0.996 | 0.444 | 0.457 | 0.419 | 0.549 | 0.484
HCC-366 | 0.43 | 0.664 | 0.536 | 0.584 | 0.628 | 0.31 | 0.337 | 0.333 | 0.34 | 0.36 | 0.946 | 1.03 | 1.06 | 1.08 | 1.07 | 0.324 | 0.35 | 0.367 | 0.46 | 0.259
NCI-H2087 | 0.694 | 0.957 | 0.823 | 0.78 | 0.557 | 0.313 | 0.271 | 0.27 | 0.281 | 0.309 | 0.849 | 0.701 | 0.94 | 0.923 | 0.85 | 0.188 | 0.192 | 0.167 | 0.224 | 0.196
SK-LU-1 | 0.138 | 0.164 | 0.174 | 0.155 | 0.156 | 0.672 | 0.702 | 0.631 | 0.581 | 0.64 | 1.17 | 1.14 | 0.962 |  | 1.41 | 0.506 | 0.578 | 0.488 | 0.489 | 0.519
HOP-62 | 0.603 | 0.703 | 0.529 | 0.579 | 0.41 | 0.236 | 0.203 | 0.201 | 0.251 | 0.243 | 0.6 | 1.01 | 0.616 | 0.42 | 0.906 | 0.384 | 0.404 | 0.393 | 0.396 | 0.37
NCI-H2126 | 0.497 | 0.625 | 0.624 | 0.634 | 0.573 | 0.675 | 0.576 | 0.551 | 0.619 | 0.577 | 1.12 | 1.04 | 1.01 | 1.19 | 1.09 | 0.505 | 0.577 | 0.536 | 0.573 | 0.599
NCI-H441 | 0.431 | 0.704 | 0.458 | 0.582 | 0.51 | 0.224 | 0.258 | 0.224 | 0.232 | 0.27 | 0.43 | 0.476 | 0.444 |  | 0.641 | 0.417 | 0.464 | 0.345 | 0.557 | 0.437
SW 1573 | 0.438 | 0.738 | 0.453 | 0.624 | 0.456 | 0.483 | 0.614 | 0.453 | 0.493 | 0.318 | 0.976 | 0.987 | 1.04 | 1.18 | 1.14 | 0.613 | 0.605 | 0.549 | 0.628 | 0.544
H3255 | 0.382 | 0.513 |  | 0.459 | 0.309 | 0.554 | 0.719 | 0.57 | 0.634 | 0.653 | 0.788 | 0.871 | 0.661 | 0.798 | 0.569 | 0.58 | 0.581 | 0.525 | 0.638 | 0.632
EMC-BAC-2 | 0.244 | 0.334 | 0.286 | 0.292 | 0.262 | 0.973 | 0.961 | 0.961 | 1.01 | 0.973 | 1.02 | 1.07 | 1.02 | 1.22 | 1.09 | 0.92 | 0.988 | 0.842 | 1.02 | 0.883
NCI-H838 | 0.251 | 0.309 | 0.312 | 0.338 | 0.281 | 0.474 | 0.478 | 0.46 | 0.472 | 0.527 | 0.824 | 0.605 | 0.749 | 0.813 | 0.884 | 0.561 | 0.465 | 0.487 | 0.617 | 0.509
NCI-H1437 | 0.263 | 0.617 | 0.371 | 0.377 | 0.309 | 0.578 | 0.495 | 0.611 | 0.559 | 0.491 | 0.468 | 0.442 | 0.475 | 0.53 | 0.463 | 0.508 | 0.587 | 0.507 | 0.762 | 0.533
RERF-LC-KJ | 0.84 | 0.77 | 0.763 | 0.853 | 0.923 | 0.648 | 0.69 | 0.576 | 0.591 | 0.37 | 1.17 | 1.16 | 1.17 | 1.18 | 0.992 | 0.837 | 0.897 | 0.944 | 0.857 | 0.919
NCI-H1651 | 0.336 | 0.39 | 0.327 | 0.335 | 0.396 | 0.588 | 0.481 | 0.71 | 0.578 | 0.936 | 0.928 | 0.984 | 0.882 | 0.91 | 0.866 | 0.773 | 0.803 | 0.772 | 0.864 | 0.789
